Calls of active or inactive are those of the source. The rule behind the calls is not given here.
Test system: CCRIS mutagenicity, Ames/micronucleus/aberration tests
Assay: CCRIS mutagenicity studies
[1] = Test System: AMES SALMONELLA TYPHIMURIUM, Strain/Indicator: TA98, Metabolic Activation: NONE, Method: STANDARD PLATE
[2] = Test System: AMES SALMONELLA TYPHIMURIUM, Strain/Indicator: TA98, Metabolic Activation: RAT, LIVER, S-9, AROCLOR 1254, Method: STANDARD PLATE
[3] = Test System: AMES SALMONELLA TYPHIMURIUM, Strain/Indicator: TA100, Metabolic Activation: NONE, Method: STANDARD PLATE
[4] = Test System: AMES SALMONELLA TYPHIMURIUM, Strain/Indicator: TA100, Metabolic Activation: RAT, LIVER, S-9, AROCLOR 1254, Method: STANDARD PLATE
[5] = Test System: AMES SALMONELLA TYPHIMURIUM, Strain/Indicator: TA1535, Metabolic Activation: NONE, Method: STANDARD PLATE
[6] = Test System: AMES SALMONELLA TYPHIMURIUM, Strain/Indicator: TA1535, Metabolic Activation: RAT, LIVER, S-9, AROCLOR 1254, Method: STANDARD PLATE
[7] = Test System: AMES SALMONELLA TYPHIMURIUM, Strain/Indicator: TA1537, Metabolic Activation: NONE, Method: STANDARD PLATE
[8] = Test System: AMES SALMONELLA TYPHIMURIUM, Strain/Indicator: TA1537, Metabolic Activation: RAT, LIVER, S-9, AROCLOR 1254, Method: STANDARD PLATE
[9] = Test System: AMES SALMONELLA TYPHIMURIUM, Strain/Indicator: TA1538, Metabolic Activation: NONE, Method: STANDARD PLATE
[10] = Test System: AMES SALMONELLA TYPHIMURIUM, Strain/Indicator: TA1538, Metabolic Activation: RAT, LIVER, S-9, AROCLOR 1254, Method: STANDARD PLATE

Row | SMILES | mutagenic call [1] | mutagenic call [2] | mutagenic call [3] | mutagenic call [4] | mutagenic call [5] | mutagenic call [6] | mutagenic call [7] | mutagenic call [8] | mutagenic call [9] | mutagenic call [10] | also measured
1 | O=S(O)O | inactive; negative | inactive; negative | inactive; negative | inactive; negative | inactive; negative | inactive; negative | inactive; negative | inactive; negative | inactive; negative | inactive; negative | mutagenic call (Test System: AMES SALMONELLA TYPHIMURIUM, Strain/Indicator: GW19, Metabolic Activation: NONE, Method: PREINCUBATION (30-90 MIN)): inactive; negative; mutagenic call (Test System: AMES SALMONELLA TYPHIMURIUM, Strain/Indicator: GW19, Metabolic Activation: NONE, Method: STANDARD PLATE): inactive; negative; mutagenic call (Test System: AMES SALMONELLA TYPHIMURIUM, Strain/Indicator: HISG46, Metabolic Activation: NONE, Method: PREINCUBATION): active; positive; mutagenic call (Test System: AMES SALMONELLA TYPHIMURIUM, Strain/Indicator: HISG46, Metabolic Activation: NONE, Method: PREINCUBATION (30-120 MIN)): active; positive; mutagenic call (Test System: AMES SALMONELLA TYPHIMURIUM, Strain/Indicator: HISG46, Metabolic Activation: NONE, Method: STANDARD PLATE): active; positive; mutagenic call (Test System: AMES SALMONELLA TYPHIMURIUM, Strain/Indicator: TA92, Metabolic Activation: NONE, Method: PREINCUBATION (30-90 MIN)): active; positive; mutagenic call (Test System: AMES SALMONELLA TYPHIMURIUM, Strain/Indicator: TA92, Metabolic Activation: NONE, Method: STANDARD PLATE): inactive; negative; mutagenic call (Test System: AMES SALMONELLA TYPHIMURIUM, Strain/Indicator: TA97, Metabolic Activation: NONE, Method: PREINCUBATION): inactive; negative; mutagenic call (Test System: AMES SALMONELLA TYPHIMURIUM, Strain/Indicator: TA97, Metabolic Activation: RAT, LIVER, S-9, AROCLOR 1254, Method: PREINCUBATION): inactive; negative; mutagenic call (Test System: AMES SALMONELLA TYPHIMURIUM, Strain/Indicator: TA102, Metabolic Activation: NONE, Method: PREINCUBATION): inactive; negative; mutagenic call (Test System: AMES SALMONELLA TYPHIMURIUM, Strain/Indicator: TA102, Metabolic Activation: RAT, LIVER, S-9, AROCLOR 1254, Method: PREINCUBATION): inactive; negative; mutagenic call (Test System: AMES SALMONELLA TYPHIMURIUM, Strain/Indicator: TA1950, Metabolic Activation: NONE, Method: PREINCUBATION (30-90 MIN)): active; positive; mutagenic call (Test System: AMES SALMONELLA TYPHIMURIUM, Strain/Indicator: TA1950, Metabolic Activation: NONE, Method: STANDARD PLATE): active; positive; mutagenic call (Test System: AMES SALMONELLA TYPHIMURIUM, Strain/Indicator: TA2410, Metabolic Activation: NONE, Method: PREINCUBATION (30-90 MIN)): active; positive; mutagenic call (Test System: AMES SALMONELLA TYPHIMURIUM, Strain/Indicator: TA2410, Metabolic Activation: NONE, Method: STANDARD PLATE): inactive; negative; mutagenic call (Test System: AMES SALMONELLA TYPHIMURIUM, Strain/Indicator: TS24, Metabolic Activation: NONE, Method: PREINCUBATION (30-90 MIN)): active; positive; mutagenic call (Test System: AMES SALMONELLA TYPHIMURIUM, Strain/Indicator: TS24, Metabolic Activation: NONE, Method: STANDARD PLATE): active; positive; mutagenic call (Test System: E. COLI, Strain/Indicator: WP2, Metabolic Activation: NONE, Method: STANDARD PLATE): inactive; negative; mutagenic call (Test System: E. COLI, Strain/Indicator: WP2, Metabolic Activation: RAT, LIVER, S-9, AROCLOR 1254, Method: STANDARD PLATE): inactive; negative
2 | Cc1cnc2cc3nc(C)n(C)c3c(C)c2n1 |  |  |  |  |  |  |  |  |  |  | mutagenic call (Test System: AMES SALMONELLA TYPHIMURIUM, Strain/Indicator: TA98, Metabolic Activation: S-9, Method: PREINCUBATION): inactive; negative
3 | O=S(=O)(O)c1c(N=Nc2c(O)ccc3ccccc23)ccc2ccccc12 | active; positive | inactive; negative | inactive; negative | inactive; negative | inactive; negative | inactive; negative | inactive; negative |  | inactive; negative | inactive; negative | mutagenic call (Test System: AMES SALMONELLA TYPHIMURIUM, Strain/Indicator: TA98, Metabolic Activation: HAMSTER, LIVER, S-9, AROCLOR 1254, Method: STANDARD PLATE): active; positive; mutagenic call (Test System: AMES SALMONELLA TYPHIMURIUM, Strain/Indicator: TA98, Metabolic Activation: HAMSTER, LIVER, S-9, Method: PREINCUBATION (PRIVAL METHOD)): inactive; negative; mutagenic call (Test System: AMES SALMONELLA TYPHIMURIUM, Strain/Indicator: TA100, Metabolic Activation: HAMSTER, LIVER, S-9, AROCLOR 1254, Method: STANDARD PLATE): active; positive; mutagenic call (Test System: AMES SALMONELLA TYPHIMURIUM, Strain/Indicator: TA1535, Metabolic Activation: HAMSTER, LIVER, S-9, AROCLOR 1254, Method: STANDARD PLATE): active; positive; mutagenic call (Test System: AMES SALMONELLA TYPHIMURIUM, Strain/Indicator: TA1538, Metabolic Activation: HAMSTER, LIVER, S-9, AROCLOR 1254, Method: STANDARD PLATE): active; positive; mutagenic call (Test System: MOUSE LYMPHOMA, Strain/Indicator: L5178Y (TK+/TK-), Metabolic Activation: NONE, Method: SUSPENSION/PLATE): inactive; negative. reevaluation of results: inconclusive; mutagenic call (Test System: MOUSE LYMPHOMA, Strain/Indicator: L5178Y (TK+/TK-), Metabolic Activation: RAT, LIVER, S-9, AROCLOR 1254, Method: SUSPENSION/PLATE): inactive; negative. reevauluation of results: negative
4 | N=C(N)c1ccc(-c2cc3ccc(C(=N)N)cc3s2)cc1 | inactive; negative |  | inactive; negative |  |  |  |  |  |  |  | mutagenic call (Test System: AMES SALMONELLA TYPHIMURIUM, Strain/Indicator: TA98, Metabolic Activation: RAT, LIVER, S-9, PHENOBARBITAL, Method: STANDARD PLATE): inactive; negative; mutagenic call (Test System: AMES SALMONELLA TYPHIMURIUM, Strain/Indicator: TA100, Metabolic Activation: RAT, LIVER, S-9, PHENOBARBITAL, Method: STANDARD PLATE): inactive; negative
5 | CN1CCN(C2=Nc3cc(Cl)ccc3Nc3ccccc32)CC1 | inactive; negative | inactive; negative | inactive; negative | inactive; negative | inactive; negative | inactive; negative | inactive; negative | inactive; negative |  |  | 

Source: PubChem BioAssay AID1259407 (Chemical Carcinogenesis Research Information System (CCRIS), 2018)
